Legend:
thymus weight in rats = assay: Thymus inhibition testing (subcutaneous administration); assay type: in vivo, rat; settings: for Body weight gain / Thymus / Thymus Inhibition: Table VII, three days; for TED50: dose required to achieve 50% inhibition of thymi weight
Method: Several further studies were undertaken to determine the effects of selected compounds of the invention on thymi weights in rats when the drugs were systemically administered. In each of these studies, male Sprague-Dawley rats were used. […] On the fifth day (48 hours following the last treatment), the animals were sacrificed and the thymi weights were recorded. […] It is evident that the higher the inhibition of thymus activity at a given dose, the more toxic the compound is.

[1] = system: granulation tissue formation caused by implantation of cotton pellets; assay: Granuloma formation test (local cotton pellet granuloma assay); assay type: in vivo, rat; settings: for Body wt. gain / Granulation tissue Dry wt. / Granulation tissue Dry wt. Inhibition / Granulation tissue Wet wt. / Granulation tissue Wet wt. Inhibition / Thymus wt.: Table IV; for Relative potency (ED40) / Relative potency (ED60): chloromethyl 11β-hydroxy-17α-isopropoxycarbonyloxyandrost-4-en-3-one-17β-carboxylate = 1; for ED40: dose causing 40% inhibition of granulation tissue weight; for ED60: dose causing 60% inhibition of granulation tissue weight
Method: The test compound was dissolved in acetone and aliquots of varying concentrations were injected into cotton pellets. The pellets were dried and then one pellet was implanted beneath the skin of each test rat. Six days later, the animals were sacrificed and the granulation tissue (granuloma) which formed in and around the implanted pellet was removed, dried and weighed. In addition, the thymi and adrenals were removed and weighed.

[2] = Table X, betamethasone 17-valerate = 1
[3] = Table X, dose required to achieve 40% inhibition of thymi weight, subcutaneous
[4] = Table XII, hydrocortisone 17-butyrate = 1
[5] = Table XII, thymus inhibition effect, subcutaneously
[6] = Table XII, anti-inflammatory effect in cotton pellet granuloma
[7] = dose causing 50% inhibition of granulation tissue weight

CC(C)OC(=O)O[C@]1(C(=O)OCCl)CC[C@H]2[C@@H]3CCC4=CC(=O)C=C[C@]4(C)[C@H]3[C@@H](O)C[C@@]21C [chloromethyl 11β-hydroxy-17α-isopropoxycarbonyloxy-androsta-1,4-dien-3-one-17β-carboxylate]
Body weight gain (thymus weight in rats; 3 mg/kg/day s.c.): 9.0 ± 0.9 g | Thymus (thymus weight in rats; 3 mg/kg/day s.c.): 377 ± 16 mg | Thymus Inhibition (thymus weight in rats; 3 mg/kg/day s.c.): 20.0% | Body weight gain (thymus weight in rats; 10 mg/kg/day s.c.): 6.2 ± 0.7 g | Thymus (thymus weight in rats; 10 mg/kg/day s.c.): 312 ± 23 mg | Thymus Inhibition (thymus weight in rats; 10 mg/kg/day s.c.): 33.8% | Body weight gain (thymus weight in rats; 30 mg/kg/day s.c.): 4.8 ± 1.4 g | Thymus (thymus weight in rats; 30 mg/kg/day s.c.): 257 ± 24 mg | Thymus Inhibition (thymus weight in rats; 30 mg/kg/day s.c.): 45.4% | Body weight gain (thymus weight in rats; 100 mg/kg/day s.c.): 0.3 ± 1.6 g | Thymus (thymus weight in rats; 100 mg/kg/day s.c.): 161 ± 19 mg | Thymus Inhibition (thymus weight in rats; 100 mg/kg/day s.c.): 65.8% | Relative Potency (TED40) (thymus weight in rats; [2]): 0.02 | Relative Potency (TED50) (thymus weight in rats; [2]): 0.02 | TED40 (thymus weight in rats; [3]): 16.2 mg | TED50 (thymus weight in rats; Table X, subcutaneous): 35.3 mg | Relative Potency (TED40) (thymus weight in rats; [4]): 1/12 | TED40 (thymus weight in rats; [5]): 16.2 mg/kg | Body wt. gain ([1]; 30 μg/pellet): 32.4 ± 1.2 g | Granulation tissue Dry wt. ([1]; 30 μg/pellet): 51.0 ± 2.8 mg | Granulation tissue Dry wt. Inhibition ([1]; 30 μg/pellet): 37.2% | Granulation tissue Wet wt. ([1]; 30 μg/pellet): 432 ± 15 mg | Granulation tissue Wet wt. Inhibition ([1]; 30 μg/pellet): 23.7% | Thymus wt. ([1]; 30 μg/pellet): 523 ± 26 mg | Body wt. gain ([1]; 100 μg/pellet): 35.0 ± 1.5 g | Granulation tissue Dry wt. ([1]; 100 μg/pellet): 41.1 ± 5.8 mg | Granulation tissue Dry wt. Inhibition ([1]; 100 μg/pellet): 49.4% | Granulation tissue Wet wt. ([1]; 100 μg/pellet): 417 ± 27 mg | Granulation tissue Wet wt. Inhibition ([1]; 100 μg/pellet): 26.3% | Thymus wt. ([1]; 100 μg/pellet): 537 ± 31 mg | Body wt. gain ([1]; 300 μg/pellet): 34.4 ± 1.1 g | Granulation tissue Dry wt. ([1]; 300 μg/pellet): 38.1 ± 5.9 mg | Granulation tissue Dry wt. Inhibition ([1]; 300 μg/pellet): 53.1% | Granulation tissue Wet wt. ([1]; 300 μg/pellet): 369 ± 18 mg | Granulation tissue Wet wt. Inhibition ([1]; 300 μg/pellet): 34.8% | Thymus wt. ([1]; 300 μg/pellet): 525 ± 28 mg | Body wt. gain ([1]; 1000 μg/pellet): 29.4 ± 1.5 g | Granulation tissue Dry wt. ([1]; 1000 μg/pellet): 18.5 ± 2.4 mg | Granulation tissue Dry wt. Inhibition ([1]; 1000 μg/pellet): 77.2% | Granulation tissue Wet wt. ([1]; 1000 μg/pellet): 289 ± 12 mg | Granulation tissue Wet wt. Inhibition ([1]; 1000 μg/pellet): 48.9% | Thymus wt. ([1]; 1000 μg/pellet): 423 ± 26 mg | ED50 [1, 6]: 119 μg/pellet | Relative potency (ED40) [1]: 6.5 | Relative potency (ED60) [1]: 2.3 | ED40 [1]: 47 μg/pellet | ED50 [1, 7]: 119 μg/pellet | ED60 [1]: 301 μg/pellet

CC(C)OC(=O)O[C@]1(C(=O)OCCl)CC[C@H]2[C@@H]3CCC4=CC(=O)CC[C@]4(C)[C@H]3[C@@H](O)C[C@@]21C [chloromethyl 11β-hydroxy-17α-isopropoxycarbonyloxyandrost-4-en-3-one-17β-carboxylate]
Body weight gain (thymus weight in rats; 3 mg/kg/day s.c.): 14.7 ± 0.6 g | Thymus (thymus weight in rats; 3 mg/kg/day s.c.): 439 ± 18 mg | Thymus Inhibition (thymus weight in rats; 3 mg/kg/day s.c.): 6.8% | Body weight gain (thymus weight in rats; 10 mg/kg/day s.c.): 10.2 ± 0.7 g | Thymus (thymus weight in rats; 10 mg/kg/day s.c.): 386 ± 17 mg | Thymus Inhibition (thymus weight in rats; 10 mg/kg/day s.c.): 18.0% | Body weight gain (thymus weight in rats; 30 mg/kg/day s.c.): 6.8 ± 2.1 g | Thymus (thymus weight in rats; 30 mg/kg/day s.c.): 291 ± 22 mg | Thymus Inhibition (thymus weight in rats; 30 mg/kg/day s.c.): 38.2% | Body weight gain (thymus weight in rats; 100 mg/kg/day s.c.): 2.8 ± 1.8 g | Thymus (thymus weight in rats; 100 mg/kg/day s.c.): 185 ± 17 mg | Thymus Inhibition (thymus weight in rats; 100 mg/kg/day s.c.): 60.7% | Relative Potency (TED40) (thymus weight in rats; [2]): 0.01 | Relative Potency (TED50) (thymus weight in rats; [2]): 0.01 | TED40 (thymus weight in rats; [3]): 31.0 mg | TED50 (thymus weight in rats; Table X, subcutaneous): 58.5 mg | Relative Potency (TED40) (thymus weight in rats; [4]): 1/24 | TED40 (thymus weight in rats; [5]): 31.0 mg/kg | Body wt. gain ([1]; 100 μg/pellet): 34.9 ± 2.7 g | Granulation tissue Dry wt. ([1]; 100 μg/pellet): 70.0 ± 6.0 mg | Granulation tissue Dry wt. Inhibition ([1]; 100 μg/pellet): 13.8% | Granulation tissue Wet wt. ([1]; 100 μg/pellet): 485 ± 36 mg | Granulation tissue Wet wt. Inhibition ([1]; 100 μg/pellet): 14.3% | Thymus wt. ([1]; 100 μg/pellet): 452 ± 29 mg | Body wt. gain ([1]; 300 μg/pellet): 33.9 ± 1.6 g | Granulation tissue Dry wt. ([1]; 300 μg/pellet): 50.9 ± 2.8 mg | Granulation tissue Dry wt. Inhibition ([1]; 300 μg/pellet): 37.3% | Granulation tissue Wet wt. ([1]; 300 μg/pellet): 431 ± 20 mg | Granulation tissue Wet wt. Inhibition ([1]; 300 μg/pellet): 23.9% | Thymus wt. ([1]; 300 μg/pellet): 469 ± 25 mg | Body wt. gain ([1]; 1000 μg/pellet): 34.0 ± 2.6 g | Granulation tissue Dry wt. ([1]; 1000 μg/pellet): 24.1 ± 2.7 mg | Granulation tissue Dry wt. Inhibition ([1]; 1000 μg/pellet): 70.3% | Granulation tissue Wet wt. ([1]; 1000 μg/pellet): 305 ± 16 mg | Granulation tissue Wet wt. Inhibition ([1]; 1000 μg/pellet): 46.1% | Thymus wt. ([1]; 1000 μg/pellet): 464 ± 30 mg | Body wt. gain ([1]; 3000 μg/pellet): 32.4 ± 2.3 g | Granulation tissue Dry wt. ([1]; 3000 μg/pellet): 20.3 ± 1.3 mg | Granulation tissue Dry wt. Inhibition ([1]; 3000 μg/pellet): 75.0% | Granulation tissue Wet wt. ([1]; 3000 μg/pellet): 292 ± 7 mg | Granulation tissue Wet wt. Inhibition ([1]; 3000 μg/pellet): 48.4% | Thymus wt. ([1]; 3000 μg/pellet): 459 ± 24 mg | ED50 [1, 6]: 460 μg/pellet | Relative potency (ED40) [1]: 1 | Relative potency (ED60) [1]: 1 | ED40 [1]: 307 μg/pellet | ED50 [1, 7]: 460 μg/pellet | ED60 [1]: 690 μg/pellet

Source: patent publication US6610675B1 (priority 1980, dated 2003)
